Reference: PubChem BioAssay (NCI)
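Values below derive from 48-hour exposures of cells grown in 96-well plates, with endpoints linearly interpolated between the two concentrations bracketing the appropriate inhibition level. TGI: concentration producing complete growth inhibition.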

What was measured:
Experiment in all cases: NCI anticancer screen, dose series, 48 h
CAKI-1 renal = system: CAKI-1 renal
COLO 205 colon = system: COLO 205 colon
HCC-2998 colon = system: HCC-2998 colon
HCT-15 colon = system: HCT-15 colon
HT29 colon = system: HT29 colon
MCF7 breast = system: MCF7 breast
MOLT-4 leukemia = system: MOLT-4 leukemia
NCI-H460 lung = system: NCI-H460 lung
NCI-H522 lung = system: NCI-H522 lung
RPMI-8226 leukemia = system: RPMI-8226 leukemia
SF-268 CNS = system: SF-268 CNS
T-47D breast = system: T-47D breast

Row | Compound | TGI (CAKI-1 renal) [µM] | TGI (COLO 205 colon) [µM] | TGI (HCC-2998 colon) [µM] | TGI (HCT-15 colon) [µM] | TGI (HT29 colon) [µM] | TGI (MCF7 breast) [µM] | TGI (MOLT-4 leukemia) [µM] | TGI (NCI-H460 lung) [µM] | TGI (NCI-H522 lung) [µM] | TGI (RPMI-8226 leukemia) [µM] | TGI (SF-268 CNS) [µM] | TGI (T-47D breast) [µM]
1 | CC(=O)c1sc2c(c1OC(=O)c1ccccc1)c(=O)n(-c1ccccc1)c(=S)n2-c1ccccc1 | > 26.4 | 30.1 | 45.4 | 62.9 | 12.9 | 99.8 | 8.3 | > 59.5 | 67.8 | 7.32 | > 63 | > 50.3
2 | O=C(/C=C/c1ccc(O)c(O)c1)c1ccc(O)cc1O | 28.9 | 31 | 34.2 | 44.3 | 33.4 | 15.7 | 55.9 | 36.3 | 8.65 | 55.2 | 37.6 | 20
3 | CSc1c(S(C)=O)c2ccccc2n1C (configuration not stated) | > 100 | > 100 | > 100 | > 100 | > 100 | > 100 | > 100 | > 100 | > 100 | > 100 | > 100 | > 100
4 | CC(=O)c1ccc(Nc2nc3ccccc3c3occc23)cc1 | 16.1 | 27.6 | 28.4 | 33.8 | 17.3 | 56.6 | 11.9 | 23 | 9.12 | 29.6 | 75.7 | 29.9
5 | CC(C)(C)c1cc(OCc2n[nH]c(=S)n2N)c(Cl)cc1OCc1n[nH]c(=S)n1N | > 100 | > 100 | > 100 | > 100 | > 100 | > 100 | > 100 | 77.9 | > 100 | > 100 | > 100 | > 100
6 | O=C(N/N=C\c1ccc(Cl)cc1)Nc1cccc2ccccc12 | 4.76 | > 100 | > 100 | > 31.6 | > 100 | 22.3 | > 43.7 | 10.2 | > 31.5 | > 100 | > 26.1 | > 100
7 | Cc1cnc2c(c1)C(=O)N(c1ccc(Br)cc1)S2(=O)=O | > 100 | > 100 | > 100 | > 100 | > 100 | > 100 | > 100 | > 100 | > 100 | > 100 | > 100 | > 100
8 | CCOC(=O)C(CCSC)(CCSC)C(=O)OCC | > 100 | > 100 | > 100 | > 100 | > 100 | > 100 | > 100 | > 100 | > 100 | > 100 | > 100 | > 100
9 | COc1cccc(C2c3cc4c(cc3OC(NNC(N)=O)C2C)OCO4)c1OC (configuration not stated) | 83.4 | 27.8 | > 100 | 77.7 | 62.3 | > 100 | 66.8 | 68 | 61.5 | 46.1 | > 100 | > 100
10 | Oc1ccccc1CNCc1ccccc1O | > 100 | > 100 | 36.7 | > 100 | > 100 | > 100 | > 100 | > 100 | > 100 | > 100 | > 100 | > 100
11 | O=C(Nc1ccccc1)c1cc2cc(CCl)ccc2oc1=O | > 100 | > 100 | > 100 | > 100 | > 100 | 82.9 | > 100 | > 100 | > 100 | > 100 | > 100 | > 100
12 | Cc1ccc(C(CCO)CCO)nc1 | > 100 | > 100 | > 100 | > 100 | > 100 | > 100 | > 100 | > 100 | > 100 | > 100 | > 100 | > 100
13 | Nc1n[nH]c(N)n1 | 8860 | 9990 | > 10000 | > 10000 | > 10000 | > 10000 | > 10000 | 8220 | 4640 | > 10000 | > 10000 | > 10000
14 | CCCCCCc1cc2cc(-c3cn4ccccc4n3)c(=O)oc2cc1O | 13.5 | > 100 | 47.2 | 20.9 | > 100 | 17.5 | > 63.3 | 36.1 | 15.1 | 18.4 | 6.94 | 52
15 | COc1cc(C2SCC(=O)N2c2ccc(Cl)cc2)cc(OC)c1OC (configuration not stated) | > 100 | > 56.8 | > 100 | > 100 | > 41 | > 100 | 30.7 | > 100 | > 100 | > 55.3 | > 100 | > 24.2
16 | C[C@@]12C[C@@H](c3ccccc3O1)N1CCCSC1=N2 | > 100 | > 100 | > 100 | > 100 | > 100 | > 100 | > 100 | > 100 | > 100 | > 100 | > 100 | > 100
17 | CCOC(=O)c1c(Br)c(-c2ccc([N+](=O)[O-])cc2)c(Br)n1C | > 10 | > 10 | > 10 | > 10 | > 10 | > 10 | > 10 | > 10 | > 10 | > 10 | > 10 | > 10
18 | COC(=O)CCc1cc(OC)c2oc(-c3ccc(OC)c(OC)c3)c(CO)c2c1 | > 100 | > 100 | > 100 | > 100 | > 100 | > 100 | > 100 | > 100 | > 100 | > 100 | > 100 | > 100
19 | CC(=O)O[C@H]1C(=O)[C@@]2(C)[C@H]([C@H](OC(=O)c3ccccc3)[C@]3(O)C[C@H](OC(=O)[C@H](O)[C@@H](NC(=O)OC(C)(C)C)c4ccco4)C(C)=C1C3(C)C)[C@]1(OC(C)=O)CO[C@@H]1C[C@@H]2O | > 50 | < 0.005 | 0.00901 | 12.3 | 0.24 | 0.247 | 25.9 | > 19 | 0.00875 | > 28.2 | > 50 | > 50
20 | Cc1cc(S(=O)(=O)Nc2nnc3c(Cl)cc(C(F)(F)F)cn23)c(S)cc1Cl | > 100 | > 100 | > 100 | > 100 | > 100 | > 100 | > 100 | > 100 | > 100 | > 100 | > 100 | > 100
21 | S=C1C(CCCOCc2ccccc2)C2CCCC23CC2(CCN13)OCCS2 (configuration not stated) | > 10 | > 10 | > 10 | > 10 | > 10 | > 10 | > 10 | > 10 | > 10 | > 10 | > 10 | > 10
